Experimental data as given in US20230374015A1, “INHIBITORS OF FIBROBLAST GROWTH FACTOR RECEPTOR KINASES” (Kinnate Biopharma Inc., priority 2020, published 2023).

Target: FGFR2 (Homo sapiens, UniProt P21802)
Assay: FGFR2 Kinase Protocol - Condition 2 (Reaction Biology HotSpot radiometric kinase assay, no preincubation)
Format: biochemical
Conditions: poly[Glu:Tyr] (4:1) 0.2 mg/ml, ATP 100 microM, 2 hr room temperature
Experimental: Example 2: FGFR2 Kinase Protocol—Condition 2
The Reaction Biology HotSpot assay platform (http://www.reactionbiology.com) was used to measure kinase/inhibitor interactions as described previously (Anastassiadis et al., 2011). In brief, for each reaction, kinase and substrate were mixed in a buffer containing 20 mM HEPES (pH 7.5), 10 mM MgCl2, 1 mM EGTA, 0.02% Brij35, 0.02 mg/mL BSA, 0.1 mM Na3VO4, 2 mM DTT, and 1% DMSO. All compounds were in powder form and freshly solubilized in DMSO for assays. Compounds were then added to each reaction mixture via acoustic dispense using an ECHO 550 nanoliter dispenser. For Human FGFR2 wildtype testing, a peptide substrate, poly[Glu:Tyr] (4:1) was used to promote the reaction at a concentration of 0.2 mg/ml. For Human FGFR2 (V564F) testing, a peptide substrate, poly[Glu:Tyr] (4:1) was used to promote the reaction at a concentration of 0.2 mg/ml. ATP concentration for all assays was maintained at 100 micromolar. Compounds were tested in 10-dose IC50 mode with a 3-fold serial dilution. Compounds were added to plates and ATP was added directly to the wells. ATP (Sigma-Aldrich, St. Louis, MO 63178) and [g33P] ATP (specific activity 10 microCi/microliter) purchased at PerkinElmer (Boston, MA, 02118 Cat #BLU 003H250UC) were added at a final total concentration of 100 microM to each well with no preincubation. Reactions were carried out at room temperature for 2 hr and spotted onto P81 ion exchange cellulose chromatography paper (Reaction Biology). Filter paper was washed in 0.75% phosphoric acid to remove unincorporated ATP. The percent remaining kinase activity relative to a vehicle-containing (DMSO) kinase reaction was calculated for each kinase/inhibitor pair. IC50 values were calculated using Dotmatics Knowledge Solutions Studies curve fitting (Dotmatics, Bishops Stortford, UK, CM23).

FGFR2, sequence (P21802 22-821): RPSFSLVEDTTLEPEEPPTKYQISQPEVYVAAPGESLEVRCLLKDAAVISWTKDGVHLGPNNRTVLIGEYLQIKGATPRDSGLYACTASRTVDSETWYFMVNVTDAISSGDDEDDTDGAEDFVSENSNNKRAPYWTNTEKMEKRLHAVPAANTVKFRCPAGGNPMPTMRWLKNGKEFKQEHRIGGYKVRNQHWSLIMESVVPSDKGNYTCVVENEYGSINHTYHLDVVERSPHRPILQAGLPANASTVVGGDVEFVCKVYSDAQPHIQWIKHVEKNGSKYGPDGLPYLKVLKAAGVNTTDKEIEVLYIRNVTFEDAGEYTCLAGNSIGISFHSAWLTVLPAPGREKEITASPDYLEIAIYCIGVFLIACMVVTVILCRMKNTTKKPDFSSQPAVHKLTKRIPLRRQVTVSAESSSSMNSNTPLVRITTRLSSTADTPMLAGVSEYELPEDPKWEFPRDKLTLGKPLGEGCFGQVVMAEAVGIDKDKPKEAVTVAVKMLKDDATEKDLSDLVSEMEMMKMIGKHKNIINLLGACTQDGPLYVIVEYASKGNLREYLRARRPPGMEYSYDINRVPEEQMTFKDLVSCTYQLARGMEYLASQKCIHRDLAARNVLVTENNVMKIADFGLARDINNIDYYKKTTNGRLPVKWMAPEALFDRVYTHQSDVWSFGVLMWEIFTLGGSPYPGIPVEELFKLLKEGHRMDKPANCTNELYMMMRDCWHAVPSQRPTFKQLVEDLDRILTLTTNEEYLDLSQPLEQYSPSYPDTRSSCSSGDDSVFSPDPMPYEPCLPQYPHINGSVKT

IC50 [nM]	Structure (SMILES)
≤ 100	C=CC(=O)N1C[C@@H](n2nc(C#Cc3ccc4c(c3)nc(C(F)(F)F)n4C)c3c(N)ncnc32)C[C@@H]1COC [Example 46, 1-((2R,4S)-4-(4-amino-3-((1-methyl-2-(trifluoromethyl)-1H-benzo[d]imidazol-5-yl)ethynyl)-1H-pyrazolo[3,4-d]pyrimidin-1-yl)-2-(methoxymethyl)pyrrolidin-1-yl)prop-2-en-1-one]
≤ 100	C=CC(=O)N1CC[C@H](n2nc(C#Cc3cc4ncn(C)c4c(F)c3Cl)c3c(N)nccc32)C1 [Example 148, 1-[(3S)-3-{4-Amino-3-[2-(6-chloro-7-fluoro-1-methyl-1,3-benzodiazol-5-yl)ethynyl]pyrazolo[4,3-c]pyridin-1-yl}pyrrolidin-1-yl]prop-2-en-1-one]
≤ 100	C=CC(=O)N1C[C@@H](n2nc(C#Cc3c(F)cc4c(cnn4C)c3F)c3c(N)nccc32)C[C@@H]1COC [Example 50, 1-((2R,4S)-4-(4-amino-3-((4,6-difluoro-1-methyl-1H-indazol-5-yl)ethynyl)-1H-pyrazolo[4,3-c]pyridin-1-yl)-2-(methoxymethyl)pyrrolidin-1-yl)prop-2-en-1-one]
≤ 100	C=CC(=O)N1C[C@@H](n2nc(C#Cc3cc4ncn(CC)c4cc3Cl)c3c(N)ncnc32)C[C@@H]1COC [Example 92, 1-[(2R,4S)-4-[4-Amino-3-[2-(6-chloro-1-ethyl-1,3-benzodiazol-5-yl)ethynyl]pyrazolo[3,4-d]pyrimidin-1-yl]-2-(methoxymethyl)pyrrolidin-1-yl]prop-2-en-1-one]
100 to 1000	C=CC(=O)N1C[C@@H](n2nc(C#Cc3c(F)cc4nn(CC)cc4c3F)c3c(N)nccc32)C[C@@H]1COC [Example 51, 1-((2R,4S)-4-(4-amino-3-((2-ethyl-4,6-difluoro-2H-indazol-5-yl)ethynyl)-1H-pyrazolo[4,3-c]pyridin-1-yl)-2-(methoxymethyl)pyrrolidin-1-yl)prop-2-en-1-one]
≤ 100	C=CC(=O)N1C[C@@H](n2cc(C#Cc3cc4ncn(C5CC5)c4cc3Cl)c3c(N)ncnc32)C[C@@H]1COC [Example 127, 1-[(2R,4S)-4-[4-Amino-5-[2-(6-chloro-1-cyclopropyl-1,3-benzodiazol-5-yl)ethynyl]pyrrolo[2,3-d]pyrimidin-7-yl]-2-(methoxymethyl)pyrrolidin-1-yl] prop-2-en-1-one]
100 to 1000	C=CC(=O)N1C[C@@H](n2nc(C#Cc3ccc4nn(C)cc4c3)c3c(N)nccc32)C[C@@H]1COC [Example 36, 1-[(2R,4S)-4-[4-amino-3-[2-(2-methylindazol-5-yl)ethynyl]pyrazolo[4,3-c]pyridin-1-yl]-2-(methoxymethyl)pyrrolidin-1-yl]prop-2-en-1-one]
≤ 100	C=CC(=O)N1C[C@@H](n2nc(C#Cc3ccc4c(cnn4CC)c3)c3c(N)ncnc32)C[C@@H]1COC [Example 34, 1-((2R,4S)-4-(4-amino-3-((1-ethyl-1H-indazol-5-yl)ethynyl)-1H-pyrazolo[3,4-d]pyrimidin-1-yl)-2-(methoxymethyl)pyrrolidin-1-yl)prop-2-en-1-one]
≤ 100	C=CC(=O)N1C[C@@H](n2nc(C#Cc3cc4ncn(CC)c4c(F)c3Cl)c3c(N)nccc32)C[C@@H]1CC#N [Example 162, 2-[(2R,4S)-4-{4-Amino-3-[2-(6-chloro-1-ethyl-7-fluoro-1,3-benzodiazol-5-yl)ethynyl]pyrazolo[4,3-c]pyridin-1-yl}-1-(prop-2-enoyl)pyrrolidin-2-yl]acetonitrile]
≤ 100	C=CC(=O)N1C[C@@H](n2nc(C#Cc3c(F)cc4[nH]c(C)nc4c3F)c3c(N)ncnc32)C[C@@H]1COC [Example 94, 1-[(2R,4S)-4-[4-Amino-3-[2-(4,6-difluoro-2-methyl-1H-1,3-benzodiazol-5-yl)ethynyl]pyrazolo[3,4-d]pyrimidin-1-yl]-2-(methoxymethyl)pyrrolidin-1-yl]prop-2-en-1-one]
≤ 100	C=CC(=O)N1C[C@@H](n2nc(C#Cc3ccc4c(c3)ncn4C)c3c(N)ncnc32)C[C@@H]1COC(F)(F)F [Example 56, 1-((2R,4S)-4-(4-Amino-3-((1-methyl-1H-benzo[d]imidazol-5-yl)ethynyl)-1H-pyrazolo[3,4-d]pyrimidin-1-yl)-2-((trifluoromethoxy)methyl)pyrrolidin-1-yl)prop-2-en-1-one]
≤ 100	C=CC(=O)N1C[C@@H](n2nc(C#Cc3cc4nc(C)n(C(F)F)c4cc3Cl)c3c(N)nccc32)C[C@@H]1COC [Example 130, 1-[(2R,4S)-4-(4-Amino-3-{2-[6-chloro-1-(difluoromethyl)-2-methyl-1,3-benzodiazol-5-yl]ethynyl}pyrazolo[4,3-c]pyridin-1-yl)-2-(methoxymethyl)pyrrolidin-1-yl]prop-2-en-1-one]
≤ 100	C=CC(=O)N1C[C@@H](n2nc(C#Cc3c(F)cc4nc(C)[nH]c4c3F)c3c(N)nccc32)C[C@@H]1COC [Example 95, 1-[(2R,4S)-4-[4-Amino-3-[2-(4,6-difluoro-2-methyl-1H-1,3-benzodiazol-5-yl)ethynyl]pyrazolo[4,3-c]pyridin-1-yl]-2-(methoxymethyl)pyrrolidin-1-yl]prop-2-en-1-one]
≤ 100	C=CC(=O)N1C[C@@H](n2nc(C#Cc3cc4ncn(C5CC5)c4cc3F)c3c(N)ncnc32)C[C@@H]1CF [Example 197, 1-((2R,4S)-4-(4-Amino-3-((1-cyclopropyl-6-fluoro-1H-benzo[d]imidazol-5-yl)ethynyl)-1H-pyrazolo[3,4-d]pyrimidin-1-yl)-2-(fluoromethyl)pyrrolidin-1-yl)prop-2-en-1-one]
≤ 100	C=CC(=O)N1C[C@@H](n2nc(C#Cc3cc4ncn(C)c4cc3Cl)c3c(N)ncnc32)C[C@@H]1C(F)F [Example 179, 1-((2R,4S)-4-(4-amino-3-((6-chloro-1-methyl-1H-benzo[d]imidazol-5-yl)ethynyl)-1H-pyrazolo[3,4-d]pyrimidin-1-yl)-2-(difluoromethyl)pyrrolidin-1-yl)prop-2-en-1-one]
≤ 100	C=CC(=O)N1C[C@@H](n2nc(C#Cc3cc4ncn(C)c4c(F)c3F)c3c(N)nccc32)C[C@@H]1CC#N [Example 159, 2-((2R,4S)-1-Acryloyl-4-(4-amino-3-((6,7-difluoro-1-methyl-1H-benzo[d]imidazol-5-yl)ethynyl)-1H-pyrazolo[4,3-c]pyridin-1-yl)pyrrolidin-2-yl)acetonitrile]
100 to 1000	C=CC(=O)N1C[C@@H](n2nc(C#Cc3c(F)cc4nn(C)cc4c3F)c3c(N)nccc32)C[C@@H]1COC [Example 45, 1-((2R,4S)-4-(4-amino-3-((4,6-difluoro-2-methyl-2H-indazol-5-yl)ethynyl)-1H-pyrazolo[4,3-c]pyridin-1-yl)-2-(methoxymethyl)pyrrolidin-1-yl)prop-2-en-1-one]
≤ 100	C=CC(=O)N1C[C@@H](n2nc(C#Cc3cc4ncn(CC)c4cc3F)c3c(N)nccc32)C[C@@H]1COC(F)(F)F [Example 81, 1-[(2R,4S)-4-[4-Amino-3-[2-(1-ethyl-6-fluoro-1,3-benzodiazol-5-yl)ethynyl]pyrazolo[4,3-c]pyridin-1-yl]-2-[(trifluoromethoxy)methyl]pyrrolidin-1-yl]prop-2-en-1-one]
≤ 100	C=CC(=O)N1C[C@@H](n2nc(C#Cc3cc4ncn(C5CC5)c4cc3Cl)c3c(N)ncnc32)C[C@@H]1COC [Example 126, 1-[(2R,4S)-4-[4-Amino-3-[2-(6-chloro-1-cyclopropyl-1,3-benzodiazol-5-yl)ethynyl]pyrazolo[3,4-d]pyrimidin-1-yl]-2-(methoxymethyl)pyrrolidin-1-yl]prop-2-en-1-one]
≤ 100	C=CC(=O)N1C[C@@H](n2nc(C#Cc3c(F)cc4c(nc(C)n4C)c3F)c3c(N)nccc32)C[C@@H]1CC#N [Example 39, 2-((2R,4S)-1-acryloyl-4-(4-amino-3-((4,6-difluoro-1,2-dimethyl-1H-benzo[d]imidazol-5-yl)ethynyl)-1H-pyrazolo[4,3-c]pyridin-1-yl)pyrrolidin-2-yl)acetonitrile]
≤ 100	C=CC(=O)N1C[C@@H](n2nc(C#Cc3cc4ncn(CC)c4c(F)c3F)c3c(N)ncnc32)C[C@@H]1CC#N [Example 157, 2-[(2R,4S)-4-{4-Amino-3-[2-(1-ethyl-6,7-difluoro-1,3-benzodiazol-5-yl)ethynyl]pyrazolo[3,4-d]pyrimidin-1-yl}-1-(prop-2-enoyl)pyrrolidin-2-yl]acetonitrile]
≤ 100	C=CC(=O)N1C[C@@H](n2cc(C#Cc3cc4ncn(C)c4cc3F)c3c(N)ncnc32)C[C@@H]1COC [Example 63, 1-[(2R,4S)-4-[4-Amino-5-[2-(6-fluoro-1-methyl-1,3-benzodiazol-5-yl)ethynyl]pyrrolo[2,3-d]pyrimidin-7-yl]-2-(methoxymethyl)pyrrolidin-1-yl]prop-2-en-1-one]
